From patent US20260217699A1, “BERBERINE TAUROURSODEOXYCHOLATE COMPOSITIONS AND METHODS THEREOF” (SHENZHEN HIGHTIDE BIOPHARMACEUTICAL LTD., priority 2023, published 2026)

Key:
Type in all cases: in vivo, Sprague-Dawley rats
[1] = tested on: tyrosine hydroxylase (TH)-positive cells; assay: Immunofluorescence staining of TH in Str and SN brain regions; details: Mean ± SEM, N=15; for TH staining SN positive cells num.: Model 0.9 ± 0.5; for TH staining Str Fluorescence intensity: Model 11.1 ± 3.0
Description: After the rat was anesthetized, the abdominal cavity and thorax were cut open with straight scissors to expose the heart. The blood was first flushed out with normal saline perfusion, and then paraformaldehyde was used for initial perfusion fixation. The head was cut off, and the brain case was carefully opened with tweezers, and the brain tissue was removed and placed in paraformaldehyde solution and fix for 24 h; on the second day, took out the brain tissue and placed in 20% sucrose solution for 24 h; on the third day, took out the brain tissue and placed in 30% sucrose solution for 24 h; on the fourth day, took out the brain tissue and placed in 35% sucrose solution for 24 h (increase the time or concentration appropriately according to the condition of sugar deposition in the brain tissues); took out the brain tissue, embedded it in OCT embedding agent, and cut brain slices at the thickness of […] with a freezing microtome.
Immunohistochemical staining of TH and Iba-1 was performed on the sections. Sections were rewarmed for 30 min, closed at room temperature for 1 h with 50% serum+0.3% TritonX-100 in 50 μL per slice, shook off the slices, added primary antibody (diluted in PBS), overnight at 4° C.; rewarmed for 30 min; washed off primary antibody (PBS), 5 min×3 times; added secondary antibody (diluted in PBS) by backlighting, room temperature for 2 h; washed off secondary antibody (PBS), 5minx 3 times; added (4′,6-diamidino-2-phenylindole) (DAPI), and stayed at room temperature for 10 min; washed off DAPI, 5 min×3 times; added 70% glycerol to seal the slices to avoid air bubbles. Observed and took pictures under a microscope. Selected basically the same target brain area for each slice. Afterwards, ImageJ was used to count the signal number or area of the entire slice.
(§1) Experimental Methods: Seventy 180-220g SD male rats were selected and fed for one week for accumulation, and the PD model was established by stereotactic unilateral injection of 6-OHDA in the Substantia Nigra (SN) and Striatum (Str) regions and were randomly divided into five groups according to their body weights including Madopar group (Madopar, 50 mg/kg), BTUDC-L group (BTUDC, 100 mg/kg), BTUDC-M group (BTUDC, 500 mg/kg), and BTUDC-H group (BTUDC, 1000 mg/kg), with 10 animals in each group. Another 10 SD male rats were taken for sham operation (only 4 μL of 0.9% NS containing 0.02% ascorbic acid was given to the SN and Str brain regions during modeling) as the Sham group. The drug was administered by gavage once daily continuously for 21 days starting on the second day of modeling (first day of dosing, D1). General observation was made during the dosing period. At the end of the administration, the test articles were evaluated for tolerance in this model and in behavioral apomorphine—asymmetric rotation test, beam test, rotarod test and grip strength test, immunofluorescence staining (TH, Ibal), and cerebrospinal fluid inflammatory factor assays to evaluate the pharmacodynamic effects of the test articles. Inflammatory factors tested included interleukin 6 (1L-6), inflammatory factor […], Tumor Necrosis Factor alpha (TNF-α), inflammatory assays were done in a total of 4 groups included Sham, Model, Madopar and BTUDC-H groups.
Dosing volume: 10 mL/kg • 1. General observation: During the period of drug administration, body weight, food intake test and cage side observation were conducted every 3 days. • 2. Behavioral test: After 21 days of administration, behavioral test was carried out on the following day. • 3. […]

IL-1β = assay: Elisa test of cerebrospinal fluid, IL-1β; details: rat cerebrospinal fluid; BTUDC-H 1000 mg/kg p.o. Qd 21 days; Mean ± SEM, n=10; Model 41.509 ± 1.298; p<0.05 vs Model
Excerpt: The cerebrospinal fluid was directly extracted by inserting a needle through the foramen magnum, and the supernatant was collected after centrifugation for ELISA testing. The kit brand was Shanghai Enzyme Link. The product codes of IL-6, IL-1β, and TNF-α were m1064292, m1037361, and m1002859, respectively. Processed the sample according to the instructions of the ELISA detection kit, adjusted the blank well to zero, measured the absorbance (OD value) of each well sequentially at a wavelength of 450 nm, and calculated the sample concentration based on the standard curve and OD value. […]
Dosing volume: 10 mL/kg • 1. […] Histochemical test: After the behavioral test, the cerebrospinal fluid from each animal (N=10) was collected, centrifuged to collect the supernatant, and stored at −80° C. for Elisa test (IL-6, IL-1β, TNF-α), then the animals in each group (N=5) were randomly selected to take the modeling side of the striatum for the detection of neurotransmitters, and the rest of them (N=5) were subjected to cardiac perfusion, which was performed by the process of perfusion, fixation, sedimentation and slicing for immunofluorescence staining and photographed, and the number or area of signals were counted by ImageJ software. • 4. […]

[2] = tested on: 6-OHDA Stereotactic Injection Induced PD Rats; assay: Tolerability / general condition observation in PD rat model
Description: In this study, 16 Sprague Dawley (SD) male rats 180g-220g were used to establish a PD model by stereotactic unilateral injection of 6-OHDA in the substantia nigra (SN) and striatum (Str) brain areas after one week of acclimatization feeding and were randomly divided into 2 groups of 8 rats each. One group was dosed with the test compound BTUDC 500 mg/kg (QD, p.o.) and the other group was the Model group, which was given an equal volume of 0.5% CMC-Na (QD, p.o.) as the test compound group. The animals were administered once a day for 21 consecutive days starting from the second day after modeling to evaluate the tolerability and therapeutic potential of BTUDC in the 6-OHDA PD model.
The body weight and food intake of the rats were collected and recorded every day, and the cage side observation for the animals was carried out.
as §1
Dosing volume: 10 mL/kg • 1. General observation: During the period of drug administration, body weight, food intake test and cage side observation were conducted […]. • 2. Behavioral test: After 21 days of administration, behavioral test was carried out on the following day. • 3. Histochemical test: After the behavioral test, the cerebrospinal fluid from each animal (N=10) was collected, centrifuged to collect the supernatant, and stored at −80° C. for Elisa test (IL-6, IL-1β, TNF-α), then the animals in each group (N=5) were randomly selected to take the modeling side of the striatum for the detection of neurotransmitters, and the rest of them (N=5) were subjected to cardiac perfusion, which was performed by the process of perfusion, fixation, sedimentation and slicing for immunofluorescence staining and photographed, and the number or area of signals were counted by ImageJ software. • 4. Data analysis: After the data were summarized and counted, they were analyzed using SPSS data statistics software (one-way ANOVA, p<0.05 was considered a significant difference), and images were plotted according to the results of SPSS analysis using Graph Pad software. […]

[3] = BTUDC-H 1000 mg/kg p.o. Qd 21 days, p<0.001 vs Model
[4] = BTUDC-L 100 mg/kg p.o. Qd 21 days, no significance mark
[5] = up to 1000 mg/kg p.o. Qd 21 days

SMILES: COc1ccc2cc3[n+](cc2c1OC)CCc1cc2c(cc1-3)OCO2.C[C@H](CCC(=O)NCCS(=O)(=O)[O-])[C@H]1CC[C@H]2[C@@H]3[C@@H](O)C[C@@H]4C[C@H](O)CC[C@]4(C)[C@H]3CC[C@]12C [BTUDC, Berberine tauroursodeoxycholate]
- TH staining SN positive cells num. [1, 3]: 12.7 ± 3.1
- TH staining Str Fluorescence intensity [1, 3]: 65.8 ± 4.4
- TH staining SN positive cells num. [1, 4]: 0.7 ± 0.3
- TH staining Str Fluorescence intensity [1, 4]: 19.8 ± 3.5
- TH staining SN positive cells num. ([1]; BTUDC-M 500 mg/kg p.o. Qd 21 days, no significance mark): 2.0 ± 0.6
- TH staining Str Fluorescence intensity ([1]; BTUDC-M 500 mg/kg p.o. Qd 21 days, p<0.001 vs Model): 32.6 ± 5.5
- IL-1β Conc. (IL-1β): 37.251 ± 1.005 pg/mL
- tolerability in the PD rat model ([2]; 500 mg/kg QD p.o. 21 days): well tolerated
- mortality, moribundity, abnormal animal state ([2]; 500 mg/kg QD p.o. 21 days, vs model group): no Test Compound-related mortality or moribundity nor abnormal animal state
- body weight and food intake vs model control group ([2]; 500 mg/kg QD p.o. 21 days, whole study period): no obvious differences
- body weight growth or food intake compared with other groups of animals [2, 5]: no obvious abnormalities
- tolerability [2, 5]: well tolerated
